US20160175401A1, “COMPOITIONS AND METHODS FOR MODULATING THERMOGENESIS USING PTH-RELATED AND EGF-RELATED COMPOUNDS” (DANA-FARBER CANCER INSTITUTE INC., priority 2013, published 2016)
Entries after “also recorded” stand apart in the source; their conditions may differ.

Experiments:
Type in all cases: cell-based, mouse
primary white adipocytes [1] = assay: Thermogenic gene expression (qRT-PCR) in primary white adipocytes; settings: for induce thermogenic gene expression, such as that of Ucp1 and Dio2: 1 μg/mL of the protein, primary white adipocytes (FIG. 6, FIG. 19E); for induce thermogenic gene expression, such as that of Ucp1 and Dio2 / effect on Ucp1 expression / thermogenic gene expression by EGF proteins: 24 hours; for effect on Ucp1 expression / thermogenic gene expression by EGF proteins: 1 μg/mL or 100 ng/mL, primary white adipocytes (FIG. 14A)
Procedure: Inguinal SV fractions were obtained from 30-35 days-old male mice by the following procedure. Inguinal fat tissue was dissected, washed with PBS, minced and digested for 45 min at 37° C. in PBS containing 10 mM CaCl, 2.4 U/mL dispase II (Roche), and 1.5 U/mL collagenase D (Roche). Digested tissue was filtered through a 100-μm cell strainer and centrifuged at 600 g for 5 min to pellet the SV cells which were then resuspended in SV culture medium (DMEM/F12 [1:1; Invitrogen] plus glutamax, pen/strep, and 10% FBS), filtered through a 40-μm cell strainer, centrifugation as above, resuspended in SV culture medium and plated. SV cells were grown to confluency for adipocyte differentiation which was induced by the adipogenic cocktail containing 1 μM dexamethasone, 5 μg/mL insulin, […] isobutylmethylxanthine (DMI), and 1 μM rosiglitazone in SV culture medium. 2 days after induction, cells were maintained in SV culture medium containing 5 μg/mL insulin and 1 μM rosiglitazone. Starting at day 6, cells were maintained in SV culture medium only and treated with various molecules for […] and harvested at day 8.
LLC cells were maintained in DMEM (Invitrogen) with 10% FBS and pen/strep. For conditioned media collection, cells were plated at ⅓ confluency. The following day, medium is changed to FreeStyle expression medium (Invitrogen) which was collected 24 hours later. For concentration of expression medium, LLC conditioned media was filtered using a 3 kilodalton (Kd) cut-off filter (Millipore). Adipocytes were maintained in SV culture media (DMEM/F12 [1:1; Invitrogen] plus glutamax, pen/strep, and 10% FBS) and conditioned media treatment experiments were performed 7 days post-differentiation. When adipocytes were treated with conditioned media for 24 hours, the treatment media were composed of 50% SV culturing medium and 50% LLC conditioned media. When conditioned medium was filtered and concentrated, adipocytes were exposed to 90% SV culturing medium and 10% concentrated LLC conditioned media.
RNA was extracted from cultured cells or frozen tissue samples using TRIzol (Invitrogen), purified with Qiagen RNAeasy minicolums and reverse transcribed using High Capacity cDNA Reverse Transcription kit (Applied Biosystems). Resulting cDNA was analyzed by RT-qPCR. Briefly, 25 ng of cDNA and […] of each primer were mixed with SYBR® GreenER™ PCR Master Mix (Invitrogen). Reactions were performed in 384-well format using an ABI PRISM® 7900HT instrument (Applied Biosystems). Relative mRNA levels were calculated using the comparative CT method normalized to cyclophilin.
Inguinal stroma-vascular fractions were obtained from 30-35-day-old male mice using the following procedure: Inguinal fat tissue was dissected, washed with PBS, minced and digested for 45 min at 37° C. in PBS containing 10 mM CaCl2, 2.4 Uml^−1 dispase 11 (Roche) and 1.5 U ml^−1 collagenaseD (Roche). Digested tissue was filtered through a 100-μm cell strainer and centrifuged at 600 g for 5 min to pellet the stroma-vascular cells. The pellets were then resuspended in adipocyte culture medium (DMEM/F2 (1:1, Invitrogen) plus GlutaMAX, penicillin and streptomycin, and 10% FBS), filtered through a 40-μm cell strainer, centrifuged as above, resuspended in adipocyte culture medium and plated. The stroma-vascular cells were grown to confluence for adipocyte differentiation, which was induced by an adipogenic cocktail containing 1 μM dexamethasone, 5 μg ml^−1 insulin, […] isobutylmethylxanthine (DMI) and 1 μM rosiglitazone in adipocyte culture medium. Two days after induction, cells were maintained in adipocyte culture medium containing 5 μg ml^−1 insulin and 1 μM rosiglitazone. Starting on day 6, cells were maintained in adipocyte culture medium only and treated with various molecules for 2-24 h and harvested on day 8.
LLC cells were maintained in DMEM (Invitrogen) with 10% FBS, and penicillin and streptomycin. For conditioned medium collection, cells were plated at a 1:3 confluence.

[2] = test system: PKA substrates CREB and HSL; assay: PKA signalling: protein phosphorylation by western blotting in primary adipocytes
Procedure: UCP1 protein levels were measured by western blotting in white (FIG. 23A) and brown (FIG. 23B) adipocytes. […] Real-time triplicate readings (upper panel) and their averages (lower panel) are shown (n=4). […] The values are mean±s.e.m. Statistical analysis was conducted using the two-tailed t-test. *, P<0.05; **, P<0.005; ***, P<0.0005, compared with the control group.
(§1) Cells were homogenized in a lysis buffer containing 50 mMTris (pH 7.4), 500 mM NaCl, 1% NP40, 20% glycerol, 5 mM EDTA and 1 mM phenylmethylsulphonyl fluoride (PMSF) supplemented with protease and phosphatase inhibitor cocktails (Roche). The homogenates were centrifuged at 13,000 r.p.m. for 10 min, and the supernatants were used as whole-cell lysates. Protein concentration was determined by Bio-Rad protein assay, and […] protein lysate was separated in each SDS-PAGE lane. The separated proteins were transferred to a polyvinylidene difluoride (PVDF)membrane, which was blotted with antibodies in TBS containing 0.05% Tween (TBS-T) and 5% BSA. For secondary antibody incubation. TBS-T containing 5% milk was used. Enhanced chemiluminescence (ECL) western blotting substrates (Pierce) were used for visualization of the results.

UCP1 = UCP1 protein levels by western blotting in primary adipocytes
Procedure: Cells were homogenized in a lysis buffer containing 50 mM Tris (pH 7.4), 500 mM NaCl, 1% NP40, 20% glycerol, 5 mM EDTA and 1 mM PMSF, supplemented with protease and phosphatase inhibitor cocktails (Roche). The homogenates were centrifuges at 13,000 rpm for 10 min and the supernatants were used as whole cell lysates. Protein concentration was determined by Bio-Rad Bradford assay and 50 μg of proteins were used in each SDS-PAGE run. PVDF membrane was blotted with UCP1 antibody (Abeam) in TBS containing 0.05% Tween and 5% BSA. For secondary antibody incubation, TBS-T containing 5% milk was used. ECL western blotting substrates from Pierce were used for visualization of the results.
as §1

primary white adipocytes [3] = assay: Cellular oxygen consumption rate (XF24 Extracellular Flux Analyzer, Seahorse) of primary adipocytes
Procedure: The cellular oxygen consumption rate (OCR) of primary adipocytes was determined using an XF24 Extracellular Flux Analyzer (Seahorse Bioscience). […] Twenty-four hours later, adipocyte culture medium was changed to DMEM lacking NaHCO3 but containing 10 mM glucose, 1 mM pyruvate and the treatment chemicals. The uncoupled and maximal OCRs were determined using […] (carbonyl cyanide p-trifluoromethoxyphenylhydrazone), respectively. Complex-1-dependent respiration was inhibited with 3 μM rotenone. Ex vivo tissue respiration was measured using a Clark electrode (Strathkelvin Instruments) as described in Cohen et al. (2014) Cell 156:304-316. Freshly isolated tissues were briefly minced and transferred to the electrode chamber containing a respiration buffer consisting of 1×DPBS (Delbecco's phosphate-buffered saline), 2% BSA, 25 mM glucose and 1 mM pyruvate. Oxygen consumption values were normalized to tissue weight.

Molecule: C=CC(=O)Nc1ccc2ncnc(Nc3ccc(OCc4cccc(F)c4)c(Cl)c3)c2c1 [AST-1306, reference compound]
- effect on LLC cell conditioned media thermogenic (browning) activity (primary white adipocytes [1]; AST-1306 1 μM, LLC-cell-conditioned medium, 24 h (FIG. 14C, 21A)): does not inhibit or affect; also recorded: does not block; also recorded: largely unaffected
- inhibition of BTC, EREG and HBEGF activity (Ucp1 mRNA induction) (primary white adipocytes [1]; AST-1306 1 μM, BTC, EREG, HBEGF 100 ng/ml each, 24 h (FIG. 14B, 20C)): inhibit BTC, EREG and HBEGF activity; also recorded: completely blocked Ucp1 mRNA induction

Molecule: EREG: recombinant mouse EREG (Val56-Leu101; Catalog No. 1068-EP/CF), R&D Systems
- induce thermogenic gene expression, such as that of Ucp1 and Dio2 (primary white adipocytes [1]): most potent proteins to induce thermogenic gene expression; also recorded: most potent proteins for inducing thermogenic gene expression; also recorded: induced Ucp1 expression
- effect on Ucp1 expression / thermogenic gene expression by EGF proteins (primary white adipocytes [1]): largest effect on Ucp1 expression

Molecule: NC[C@H](O)c1ccc(O)c(O)c1 [norepinephrine, reference compound]
- phosphorylation of the PKA substrates CREB and HSL ([2]; 100 nM NE, 100 ng ml^−1 PTHrP or PTH, 30 min, primary white and brown adipocytes (FIG. 23D-23E)): stimulated the phosphorylation
- UCP1 protein levels (UCP1; 100 nM NE, 100 ng ml^−1 PTHrP or PTH, 24 h, primary white and brown adipocytes (FIG. 23A-23B)): comparably increased UCP1 protein levels
- UCP1 protein levels (UCP1; 24 hour treatment, norepinephrine 100 nM, peptides 100 ng/mL, western blotting (FIG. 8D)): significantly increased
- oxygen consumption, including basal, uncoupled and maximal respiration (primary white adipocytes [3]; 100 nM NE, 100 ng ml^−1 PTHrP or PTH, 24 h (FIG. 23C)): significantly raised oxygen consumption
- uncoupled respiration and maximal respiration potential (primary white adipocytes [3]; 24 hour treatment, norepinephrine 100 nM, peptides 100 ng/mL, SeaHorse (FIG. 8D)): significantly elevate

Molecule: TGFA: recombinant human TGFA (Val40-Ala89; Catalog No. 239-A-100), R&D Systems
- effect on Ucp1 expression / thermogenic gene expression by EGF proteins (primary white adipocytes [1]): largest effect on Ucp1 expression

Molecule: O=S(=O)(NCCNC/C=C/c1ccc(Br)cc1)c1cccc2cnccc12 [H89, reference compound]
- transcriptional regulation (Ucp1, Dio2) by noradrenaline, PTHrP and PTH (primary white adipocytes [1]; H89 50 μM white, 30 μM brown adipocytes, factors 2 h (FIG. 23F-23G)): completely inhibited transcriptional regulation
- PKA signalling ([2]; H89 50 μM white, 30 μM brown adipocytes, pretreated 1 h (FIG. 23D-23E)): blocked PKA signalling

B1: BTC: recombinant mouse BTC (Asp32-Gln118; Catalog No. 1025-CE-025/CF), R&D Systems (protein)
chain: DGNTTRTPETNGSLCGAPGENCTGTTPRQKVKTHFSRCPKQYKHYCIHGRCRFVVDEQTPSCICEKGYFGARCERVDLFYLQQDRGQ
- induce thermogenic gene expression, such as that of Ucp1 and Dio2 (primary white adipocytes [1]): most potent proteins to induce thermogenic gene expression; also recorded: most potent proteins for inducing thermogenic gene expression; also recorded: induced Ucp1 expression

B2: HBEGF: recombinant human HBEGF (Met1-Leu148; Catalog No. 259-HE-050/CF), R&D Systems (protein)
chain: LVTGESLERLRRGLAAGTSNPDPPTVSTDQLLPLGGGRDRKVRDLQEADLDLLRVTLSSKPQALATPNKEEHGKRKKKGKGLGKKRDPCLRKYKDFCIHGECKYVKELRAPSCICHPGYHGERCHGLSL
- induce thermogenic gene expression, such as that of Ucp1 and Dio2 (primary white adipocytes [1]): most potent proteins for inducing thermogenic gene expression; also recorded: induced Ucp1 expression
- induce thermogenic gene expression, such as that of Ucp1 and Dio2 (primary white adipocytes [1]; listed as HB-EGF): most potent proteins to induce thermogenic gene expression
- effect on Ucp1 expression / thermogenic gene expression by EGF proteins (primary white adipocytes [1]): largest effect on Ucp1 expression
